Source: patent publication US9320734B2, “Small molecule inhibitors of the pleckstrin homology domain and methods for using same” (Board of Regents, The University of Texas System, priority 2008, dated 2016)
In brackets after ≈: the same amount, converted by molar mass. Like-named read-outs stand apart in the source and are kept apart here. Blank lines part the entries; values can stand above or below the compound they belong to.

Tests used:
[1] = system: phospho-Ser473-AKT in BxPC-3; test: Cellular AKT inhibition, Western blot phospho-Ser473-AKT, BxPC-3 cells; type: cell-based, human; conditions: for inhibition at 10 µM: Homo sapiens
[2] = system: Panc-1 and MiaPaCa-2 pancreatic cancer cells; test: Cell viability assay (Table 3); conditions: for Cell viability (IC50): viability assay, cell line not given, N/I = no inhibition at the highest concentration tested; for cytotoxicity: either cell line tested (Panc-1, MiaPaCa-2)
[3] = system: phospho-Ser473-AKT in MiaPaCa-2 cells; test: Cellular AKT inhibition, Western blot phospho-Ser473-AKT, MiaPaCa-2 cells; conditions: read-out: pAKT inhibition (IC50)
[4] = system: phospho-Ser473-AKT in HT-29 cells; test: Cellular AKT inhibition, Western blot phospho-Ser473-AKT, HT-29 cells; type: cell-based; conditions: human HT-29 colon cancer cells
Protocol: (§1) AKT inhibition leads to cellular apoptosis.
(§2) AKT activity was measured by Western blotting using anti-[…] AKT antibody. Downstream targets of AKT were detected also by Western blotting using specific anti-phospho antibodies and anti-actin was used as a loading control.

Solubility = type: physicochemical
[5] = system: phospho-Ser473 AKT in NIH3T3 cells; test: Cellular AKT inhibition, phospho-Ser473 AKT, NIH3T3 cells; type: cell-based; conditions: mouse NIH3T3, phospho-Ser473 AKT
Protocol: as §2

HT-29 cells [6] = test: Cell survival / cytotoxicity, MTT assay, HT-29 cells; type: cell-based, human
HT-29 cells [7] = test: Metabolic stability under cell culture conditions (incubation with HT-29 cells); type: in vitro ADME, human; conditions: incubating with HT-29 cells at maximum DMEM concentration at 37° C.
Source text: Compound 6 was too insoluble to obtain data.

[8] = system: phospho-Ser473-AKT in Panc-1 cells; test: Cellular AKT inhibition, Western blot phospho-Ser473-AKT, Panc-1 cells
[9] = system: Panc-1 pancreatic cell line; test: Apoptosis, morphological assay, Panc-1 cells; type: cell-based, human; conditions: Panc-1, morphological assay
Source text: as §1

[10] = system: MiaPaca-2 pancreatic cell line; test: Apoptosis, morphological assay, MiaPaCa-2 cells; type: cell-based, human; conditions: MiaPaca-2, morphological assay
Source text: as §1

[11] = BxPC-3, Western blots phospho-Ser473-AKT, 10 μM, NI = not inhibitory, read-out: % pAKT Inhibition, At 10 μM
[12] = Western blotting, phospho-Ser473-AKT, MiaPaCa-2 cells, N/I = no inhibition at the highest concentration tested
[13] = MTT assay, read-out: Cell survival (IC50)
[14] = BXPC-3, read-out: % pAKT Inhibition, At 10 μM

SMILES: CC(C)(C)c1nnc(NS(=O)(=O)c2ccc(N)cc2)s1 [Compound 113, 4-Amino-N-(5-tert-butyl-1,3,4-thiadiazol-2-yl)benzenesulfonamide]
inhibition at 10 µM [1, 11]: 13%

SMILES: CCc1nnc(NS(=O)(=O)c2ccc(N)cc2)s1 [Compound 109, 4-Amino-N-(5-ethyl-1,3,4-thiadiazol-2-yl)benzenesulfonamide]
inhibition at 10 µM [1, 11]: 16%

SMILES: CC(=O)Nc1ccc(S(=O)(=O)Nc2nnc(CC(=O)O)s2)cc1 [Compound 118, 2-(5-(4-Acetamidophenylsulfonamido)-1,3,4-thiadiazol-2-yl)acetic Acid]
inhibition at 10 µM [1, 11]: 19%

SMILES: CCCCCCCCCCCCc1ccc(S(=O)(=O)Nc2nnc(CCCCCN(C)c3ccc([N+](=O)[O-])c4nonc34)s2)cc1 [Compound 137, 4-Dodecyl-N-(5-(5-(methyl(7-nitrobenzo[c][1,2,5]oxadiazol-4-yl)amino)pentyl)-1,3,4-thiadiazol-2-yl)benzenesulfonamide]
AKT phosphorylation ([1]; BxPC-3 cells, compared with 104): inhibited AKT phosphorylation in a fashion similar to 104

Cell viability (IC50) [2]: N/I
IC50 [3, 12]: 50 µM
SMILES: COc1cc(NS(=O)(=O)c2ccc(Nc3ccco3)cc2)nc(OC)n1 [Compound 444]

Cell viability (IC50) [2]: N/I
IC50 [3, 12]: 50 µM
SMILES: O=C(Nc1ccccc1)c1ccccc1NC(=O)c1ccccc1C(=O)O [Compound 439]

SMILES: CCCCCCCCCC(=O)Nc1ccc(S(=O)(=O)Nc2nnc(C(=O)OCC)s2)cc1 [Compound 123E, Ethyl 5-(4-Decanamidophenylsulfonamido)-1,3,4-thiadiazole-2-carboxylate]
inhibition at 10 µM [1, 11]: 10%

Cell viability (IC50) [2]: N/I
IC50 [3, 12]: 50 µM
SMILES: COc1cc(NS(=O)(=O)c2ccc(NC(=O)c3ccco3)cc2)nc(OC)n1 [Compound 445]

SMILES: CC1=NN(C(=O)c2ccc(Cl)cc2)C(O)C1/N=N/c1ccc(S(=O)(=O)Nc2ncccn2)cc1 (stereo not drawn) [Compound 335]
IC50 [4]: 5 µM
Solubility (Solubility): <0.1 µM
IC50 [5]: 3 µM

SMILES: CCCCCCCCCC(=O)Nc1ccc(S(=O)(=O)Nc2nnc(C(C)(C)C)s2)cc1 [Compound 115, N-(4-(N-(5-tert-Butyl-1,3,4-thiadiazol-2-yl)sulfamoyl)phenyl)decanamide]
inhibition at 10 µM [1, 11]: 16%

SMILES: CC(=O)Nc1ccc(S(=O)(=O)Nc2nnc(C(C)(C)C)s2)cc1 [Compound 114, N-(4-(N-(5-tert-Butyl-1,3,4-thiadiazol-2-yl)sulfamoyl)phenyl)acetamide]
inhibition at 10 µM [1, 11]: 20%

SMILES: Nc1ccc(S(=O)(=O)Nc2nnc(CC(=O)O)s2)cc1 [Compound 117, 2-(5-(4-Aminophenylsulfonamido)-1,3,4-thiadiazol-2-yl)acetic Acid]
inhibition at 10 µM [1, 11]: 23%

SMILES: CCOC(=O)Cc1nnc(NS(=O)(=O)c2ccc(NC(C)=O)cc2)s1 [Compound 118E, Ethyl 2-(5-(4-Acetamidophenylsulfonamido)-1,3,4-thiadiazol-2-yl)acetate]
inhibition at 10 µM [1, 11]: 55%

SMILES: CC1=NN(C(=O)c2ccc(Cl)cc2)C(=O)C1/N=N/c1ccc(S(=O)(=O)Nc2nnc(C)s2)cc1 (stereo not drawn) [Compound 389]
IC50 (HT-29 cells [6]; [13]): > 100 µM

Cell viability (IC50) [2]: N/I
IC50 [3, 12]: 50 µM
SMILES: Nc1ccc(S(=O)(=O)Nc2ccc(S(=O)(=O)Nc3nnc(S(N)(=O)=O)s3)cc2)cc1 [Compound 456]

SMILES: CCCCCCCCCC(=O)Nc1ccc(S(=O)(=O)Nc2nnc(C)s2)cc1 [Compound 107, N-(4-(N-(5-Methyl-1,3,4-thiadiazol-2-yl)sulfamoyl)phenyl)decanamide]
inhibition at 10 µM [1, 11]: 11%

SMILES: CCc1nnc(NS(=O)(=O)c2ccc(NC(C)=O)cc2)s1 [Compound 110, N-(4-(N-(5-Ethyl-1,3,4-thiadizol-2-yl)sulfamoyl)phenyl)acetamide]
% pAKT Inhibition, At 10 μM ([1]; BxPC-3, Western blots phospho-Ser473-AKT, 10 μM, NI = not inhibitory): 45%

SMILES: CCCCCCCCc1ccc(S(=O)(=O)Nc2nncs2)cc1 [Compound 153, 4-Octyl-N-(1,3,4-thiadiazol-2-yl)benzenesulfonamide]
inhibition at 10 µM [1, 11]: 10%

Metabolic half life (HT-29 cells [7]): 1.03 h
IC50 [4]: 20 µM
Solubility (Solubility): 28.3 µM (≈ 13.1 µg/mL)
SMILES: CC1=NN(C(=O)c2ccccc2)C(=O)C1/N=N/c1ccc(S(=O)(=O)Nc2ncccn2)cc1 (stereo not drawn) [Compound 331]
IC50 (HT-29 cells [6]; HT-29 cells, NI = not inhibitory, read-out: Cytotoxicity (IC50 μM)): 14 µM
IC50 [5]: 11 µM

Cell viability (IC50) [2]: N/I
IC50 [3, 12]: 50 µM
SMILES: COc1cc(NS(=O)(=O)c2ccc(NC(C)=O)cc2)nc(OC)n1 [Compound 450]

Cell viability (IC50) [2]: N/I
SMILES: Nc1ccc(S(=O)(=O)Nc2nncs2)cc1 [Compound 100, 4-Amino-N-(1,3,4-thiadiazol-2-yl)benzenesulfonamide]
cytotoxicity [2]: did not exhibit cytotoxicity

SMILES: CCCCCCCCCC(=O)Nc1ccc(S(=O)(=O)Nc2nnc(CO)s2)cc1 [Compound 127, N-(4-(N-(5-(hydroxymethyl)-1,3,4-thiadiazol-2-yl)sulfamoyl)phenyl)decanamide]
inhibition at 10 µM [1, 11]: 11%

Cell viability (IC50) [2]: N/I
SMILES: Cc1nnc(NS(=O)(=O)c2ccc(NS(=O)(=O)c3ccc4ccccc4c3)cc2)s1 [Compound 455]
cytotoxicity [2]: did not exhibit cytotoxicity

SMILES: NS(=O)(=O)c1nnc(NS(=O)(=O)c2cccc3cccnc23)s1 [Compound 345]
IC50 (HT-29 cells [6]; [13]): > 100 µM

SMILES: CCCCCCCCCCCCCCc1ccc(S(=O)(=O)Nc2nncs2)cc1 [Compound 156, 4-Tetradecyl-N-(1,3,4-thiadiazol-2-yl)benzenesulfonamide]
inhibition at 10 µM [1, 11]: 70%

SMILES: Nc1ccc(S(=O)(=O)Nc2nnc(CO)s2)cc1 [Compound 125, 4-Amino-N-(5-(hydroxymethyl)-1,3,4-thiadiazol-2-yl)benzenesulfonamide]
inhibition at 10 µM [1, 11]: 10%

SMILES: CCCCCCCCCCCCCCCCc1ccc(S(=O)(=O)Nc2nncs2)cc1 [Compound 157, 4-Hexadecyl-N-(1,3,4-thiadiazol-2-yl)benzenesulfonamide]
inhibition at 10 µM [1, 11]: 50%

SMILES: CCCCCCCCCC(=O)Nc1ccc(S(=O)(=O)Nc2nncs2)cc1 [Compound 101, N-(4-(N-1,3,4-Thiadiazol-2-ylsulfamoyl)phenyl)decanamide]
IC50 ([8]; Homo sapiens, PANC-1, read-out: pAKT inhibition (IC50)): 10 µM

IC50 ([8]; read-out: pAKT inhibition (IC50), Panc-1, Western blots phospho-Ser473-AKT): > 50 µM
IC50 ([3]; MiaPaca-2, Western blots phospho-Ser473-AKT): > 50 µM
SMILES: COCCOCCOCC(=O)Nc1ccc(S(=O)(=O)Nc2nncs2)cc1 [Compound 103]
Apoptosis at 20 μmol/L [9]: 11.4 ± 0.5/ %
Apoptosis at 20 μmol/L [10]: 18.7 ± 3.1%

SMILES: CCCCCCCCCCCCc1ccc(S(=O)(=O)Nc2nnc(C)s2)cc1 [Compound 108, 4-Dodecyl-N-(5-methyl-1,3,4-thiadiazol-2-yl)benzenesulfonamide]
inhibition at 10 µM [1, 11]: 64%

SMILES: CCCCCCCCCC(=O)Nc1ccc(S(=O)(=O)Nc2nnc(CC)s2)cc1 [Compound 111, N-(4-(N-(5-Ethyl-1,3,4-thiadiazol-2-yl)sulfamoyl)phenyl)decanamide]
inhibition at 10 µM [1, 11]: 22%

SMILES: CCCCCCCCCC(=O)Nc1ccc(S(=O)(=O)Nc2nnc(CC(=O)O)s2)cc1 [Compound 119, 2-(5-(4-Decanamidophenylsulfonamido)-1,3,4-thiadiazol-2-yl)acetic Acid]
inhibition at 10 µM [1, 11]: 42%

SMILES: Nc1ccc(S(=O)(=O)Nc2nnc(S(N)(=O)=O)s2)cc1 [Compound 131, 5-(4-Aminophenylsulfonamido)-1,3,4-thiadiazole-2-sulfonamide]
inhibition at 10 µM [1, 14]: 18%

SMILES: CCCCCCCCCCCCc1ccc(S(=O)(=O)Nc2nnc(C(C)(C)C)s2)cc1 [Compound 116, N-(5-tert-Butyl-1,3,4-thiadiazol-2-yl)-4-dodecylbenzenesulfonamide]
inhibition at 10 µM [1, 11]: 36%

SMILES: Cc1nnc(NS(=O)(=O)c2ccc(N)cc2)s1 [Compound 105, 4-Amino-N-(5-methyl-1,3,4-thiadiazol-2-yl)benzenesulfonamide]
inhibition at 10 µM [1, 14]: 11%

Cell viability (IC50) [2]: N/I
IC50 [3, 12]: 25 µM
SMILES: CCOc1ccccc1C(=O)Nc1ccccc1C(=O)O [Compound 441]

SMILES: COc1cc(NS(=O)(=O)c2ccc(NS(=O)(=O)c3c(C)noc3C)cc2)nc(OC)n1 [Compound 415]
IC50 (HT-29 cells [6]; [13]): 3.1 µM
